Holding throughout (format): biochemical
In one assay the target is Human recombinant HDAC4 (Homo sapiens (Human), UniProt P56524). Nature of the assay: Test 2: HDAC4 assay (fluorogenic substrate, 5 μM acetyl-Gly-Ala-Lys(ε-trifluoroacetyl)-AMC). Conditions: Test 2 (values without asterisk). Here is the method:
Test 2: HDAC4 Assay Description
(§1) Control wells with HDAC4 only (positive control) and without HDAC4 (negative control) were included on the microplate. Bovine trypsin (4.5 μl of a 300 nM solution) was added and the plate incubated for additional 15 minutes at room temperature. The plate was placed in a fluorescence microplate reader, and read at an excitation wavelength of 360 nm and an emission wavelength of 450 nm with a 10 nm bandpath. Fluorescence values for all wells containing HDAC4 (positive control and wells with test compound) were corrected by subtracting negative control fluorescence values, and IC50 values were calculated by fitting the dose-response curves to a 4-parameter logistic function.

For assay [1], the target named is Human recombinant full length HDAC1 (Homo sapiens (Human), UniProt Q13547). Nature of the assay: Test 3: HDAC1 assay. To be noted: substrate 5 μM acetyl-Gly-Ala-Lys(acetyl)-AMC. Here is the method: as §1
Test 3: HDAC1 Assay Description
A similar assay procedure as described in Test 2 was used for HDAC1. Human recombinant full length HDAC1 expressed in a baculovirus expression system was purchased from BPS BioSciences (San Diego, Calif., U.S.A.). The substrate used in the […] assay was 5 μM of acetyl-Gly-Ala-Lys(acetyl)-AMC.

Assay [2] concerns the target Human recombinant full length HDAC6 (Homo sapiens (Human), UniProt Q9UBN7). Put plainly: Test 4: HDAC6 assay. Here is the method:
as §1
Test 4: HDAC6 Assay Description
A similar assay procedure as described in Test 2 was used for HDAC6. Human recombinant full length HDAC6 expressed in a baculovirus expression system was purchased from BPS BioSciences (San Diego, Calif., U.S.A.). The substrate used in the […] assay was 5 μM of acetyl-Gly-Ala-Lys(acetyl)-AMC.

[3] abbreviates: Test 4, substrate 5 μM acetyl-Gly-Ala-Lys(acetyl)-AMC.

The structures appear in SMILES notation. Where two headings read alike, the source gives them in different places.

Sequence of Human recombinant full length HDAC1 (Q13547 whole entry): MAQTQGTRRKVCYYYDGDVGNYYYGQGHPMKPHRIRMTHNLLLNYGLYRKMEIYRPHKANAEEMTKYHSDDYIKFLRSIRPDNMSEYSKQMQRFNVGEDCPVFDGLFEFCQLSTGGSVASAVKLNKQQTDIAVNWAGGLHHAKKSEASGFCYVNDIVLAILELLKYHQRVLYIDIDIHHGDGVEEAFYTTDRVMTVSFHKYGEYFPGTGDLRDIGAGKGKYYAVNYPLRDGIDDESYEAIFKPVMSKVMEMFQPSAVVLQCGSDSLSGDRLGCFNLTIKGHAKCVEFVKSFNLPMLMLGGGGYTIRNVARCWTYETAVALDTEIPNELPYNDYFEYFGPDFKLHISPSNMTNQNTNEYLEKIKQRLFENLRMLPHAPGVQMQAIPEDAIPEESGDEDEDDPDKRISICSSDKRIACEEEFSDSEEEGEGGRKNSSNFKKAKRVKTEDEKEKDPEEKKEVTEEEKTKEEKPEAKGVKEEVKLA
Sequence of Human recombinant full length HDAC6 (Q9UBN7 whole entry): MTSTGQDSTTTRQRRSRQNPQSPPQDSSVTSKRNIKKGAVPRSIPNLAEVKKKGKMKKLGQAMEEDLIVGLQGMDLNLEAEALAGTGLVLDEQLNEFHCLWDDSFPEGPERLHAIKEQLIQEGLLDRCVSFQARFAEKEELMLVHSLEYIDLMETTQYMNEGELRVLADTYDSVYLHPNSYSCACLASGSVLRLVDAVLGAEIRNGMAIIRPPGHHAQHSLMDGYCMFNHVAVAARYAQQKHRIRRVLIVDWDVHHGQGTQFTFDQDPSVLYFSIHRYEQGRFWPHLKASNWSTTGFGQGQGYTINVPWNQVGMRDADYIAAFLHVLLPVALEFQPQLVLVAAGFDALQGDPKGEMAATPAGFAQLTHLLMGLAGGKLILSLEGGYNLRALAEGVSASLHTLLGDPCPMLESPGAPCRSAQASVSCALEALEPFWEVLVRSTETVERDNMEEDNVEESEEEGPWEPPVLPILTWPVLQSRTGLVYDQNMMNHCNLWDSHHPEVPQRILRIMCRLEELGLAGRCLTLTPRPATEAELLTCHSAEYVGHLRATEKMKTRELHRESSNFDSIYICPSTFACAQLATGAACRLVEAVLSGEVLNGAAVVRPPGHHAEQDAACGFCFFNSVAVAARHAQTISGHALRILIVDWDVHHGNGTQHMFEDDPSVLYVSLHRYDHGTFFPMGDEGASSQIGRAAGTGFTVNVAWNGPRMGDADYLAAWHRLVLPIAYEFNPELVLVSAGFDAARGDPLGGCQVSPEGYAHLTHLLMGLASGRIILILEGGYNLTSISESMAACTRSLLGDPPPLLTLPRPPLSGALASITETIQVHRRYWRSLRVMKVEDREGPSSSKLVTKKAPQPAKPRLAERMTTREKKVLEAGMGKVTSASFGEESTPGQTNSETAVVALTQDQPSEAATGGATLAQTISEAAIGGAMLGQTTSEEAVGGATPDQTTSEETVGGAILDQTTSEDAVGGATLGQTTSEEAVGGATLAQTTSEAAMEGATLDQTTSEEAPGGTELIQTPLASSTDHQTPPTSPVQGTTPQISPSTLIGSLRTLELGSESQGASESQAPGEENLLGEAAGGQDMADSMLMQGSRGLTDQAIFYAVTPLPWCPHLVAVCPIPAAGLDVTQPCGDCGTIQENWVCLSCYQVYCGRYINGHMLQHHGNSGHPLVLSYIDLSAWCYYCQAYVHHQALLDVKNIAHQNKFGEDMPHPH
Sequence of Human recombinant HDAC4 (P56524 2-1084): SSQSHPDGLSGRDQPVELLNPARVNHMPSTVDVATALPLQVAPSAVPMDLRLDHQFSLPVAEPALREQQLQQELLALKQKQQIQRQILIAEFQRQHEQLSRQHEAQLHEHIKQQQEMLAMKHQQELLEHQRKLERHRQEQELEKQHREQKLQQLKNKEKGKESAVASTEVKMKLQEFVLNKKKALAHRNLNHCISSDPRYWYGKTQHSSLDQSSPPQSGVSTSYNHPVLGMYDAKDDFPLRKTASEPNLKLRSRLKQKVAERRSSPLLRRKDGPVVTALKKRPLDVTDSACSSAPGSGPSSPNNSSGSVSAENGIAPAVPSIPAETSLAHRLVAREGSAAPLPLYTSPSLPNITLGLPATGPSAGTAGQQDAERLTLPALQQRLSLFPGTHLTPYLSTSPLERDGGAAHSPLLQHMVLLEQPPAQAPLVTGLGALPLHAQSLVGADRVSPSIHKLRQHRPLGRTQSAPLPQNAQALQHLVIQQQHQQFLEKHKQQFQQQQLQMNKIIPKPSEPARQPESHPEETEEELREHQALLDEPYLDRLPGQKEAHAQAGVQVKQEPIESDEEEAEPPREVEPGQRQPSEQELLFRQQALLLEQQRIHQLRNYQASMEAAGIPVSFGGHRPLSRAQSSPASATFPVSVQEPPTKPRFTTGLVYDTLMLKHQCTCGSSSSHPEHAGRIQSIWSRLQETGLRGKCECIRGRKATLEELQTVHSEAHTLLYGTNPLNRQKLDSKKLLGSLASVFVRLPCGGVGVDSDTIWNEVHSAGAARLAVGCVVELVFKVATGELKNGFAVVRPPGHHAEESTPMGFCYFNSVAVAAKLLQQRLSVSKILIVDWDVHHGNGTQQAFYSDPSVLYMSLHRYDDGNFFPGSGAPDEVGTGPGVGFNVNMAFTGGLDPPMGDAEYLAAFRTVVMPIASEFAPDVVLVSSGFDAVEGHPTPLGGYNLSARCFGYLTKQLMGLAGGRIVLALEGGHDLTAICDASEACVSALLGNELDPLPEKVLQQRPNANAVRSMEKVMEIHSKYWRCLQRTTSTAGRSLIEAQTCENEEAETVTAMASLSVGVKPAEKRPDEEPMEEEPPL

As to `CC(C)NC(=O)c1ccc(-c2noc(C(F)(F)F)n2)cc1` [Example 20, N-isopropyl-4-(5-(trifluoromethyl)-1,2,4-oxadiazol-3-yl)benzamide], the results for the IC50 (at Human recombinant HDAC4; in assay [1]; in assay [2] (setting [3])) were 1000 nM, > 10000 nM and > 10000 nM, respectively.
Consider `CCN(CC)CCNC(=O)c1ccc(-c2noc(C(F)(F)F)n2)cc1` [Example 155, N-(2-(diethylamino)ethyl)-4-(5-(trifluoromethyl)-1,2,4-oxadiazol-3-yl)benzamide], for which the figures for the IC50 (on Human recombinant HDAC4; in assay [1]; in assay [2] (setting [3])) were 12 nM, 2900 nM and 2600 nM, respectively.
In the same order, the values of `CNCCNC(=O)c1ccc(-c2noc(C(F)(F)F)n2)cc1` [Example 157, N-(2-(methylamino)ethyl)-4-(5-(trifluoromethyl)-1,2,4-oxadiazol-3-yl)benzamide] are 40 nM, 6100 nM and 3400 nM.
In the same order, the values of `CN(C)C1CCN(C(=O)c2ccc(-c3noc(C(F)(F)F)n3)cc2)CC1` [Example 39, (4-(dimethylamino)piperidin-1-yl)(4-(5-(trifluoromethyl)-1,2,4-oxadiazol-3-yl)phenyl)methanone] are 1200 nM, > 10000 nM and > 10000 nM.
In the same order, the values of `CCCN(CC)C[C@@H](C)NC(=O)c1ccc(-c2noc(C(F)(F)F)n2)cc1` [Example 145, (R)—N-(1-(ethyl(propyl)amino)propan-2-yl)-4-(5-(trifluoromethyl)-1,2,4-oxadiazol-3-yl)benzamide] are 0.75 nM, 2400 nM and 3700 nM.
As for `CN(C)C(=O)CNC(=O)c1ccc(-c2noc(C(F)(F)F)n2)cc1` [Example 52, N-(2-(dimethylamino)-2-oxoethyl)-4-(5-(trifluoromethyl)-1,2,4-oxadiazol-3-yl)benzamide], the half-inhibitory concentration (IC50) on Human recombinant HDAC4 is 3200 nM; in assay [1], > 10000 nM; in assay [2] (setting [3]), > 10000 nM.
Turning to `O=C(NC1CCOCC1)c1ccc(-c2noc(C(F)(F)F)n2)cc1` [Example 57, N-(tetrahydro-2H-pyran-4-yl)-4-(5-(trifluoromethyl)-1,2,4-oxadiazol-3-yl)benzamide], the IC50 at Human recombinant HDAC4 is 520 nM; in assay [1], > 10000 nM; in assay [2] (setting [3]), 6500 nM.
In the same order, the values of `CCN(CC)C[C@@H](C)NC(=O)c1ccc(-c2noc(C(F)(F)F)n2)cc1` [Example 132, (R)—N-(1-(diethylamino)propan-2-yl)-4-(5-(trifluoromethyl)-1,2,4-oxadiazol-3-yl)benzamide] are 5 nM, 9200 nM and 8300 nM.
As to `CCN(C)C(=O)c1ccc(-c2noc(C(F)(F)F)n2)cc1` [Example 14, N-ethyl-N-methyl-4-(5-(trifluoromethyl)-1,2,4-oxadiazol-3-yl)benzamide], the IC50 on Human recombinant HDAC4 is 900 nM; in assay [1] it was > 10000 nM; in assay [2] (setting [3]) it was > 10000 nM.
As for `CN(C)C(=O)c1ccc(-c2noc(C(F)(F)F)n2)cc1` [Example 1, N,N-dimethyl-4-(5-(trifluoromethyl)-1,2,4-oxadiazol-3-yl)benzamide], the IC50 on Human recombinant HDAC4 is 360 nM; in assay [1] it was > 10000 nM; in assay [2] (setting [3]) it was > 10000 nM.
Regarding `O=S(=O)(Nc1cccc(Cl)c1)c1ccc(-c2noc(C(F)(F)F)n2)cc1` [Example 107, N-(3-chlorophenyl)-4-(5-(trifluoromethyl)-1,2,4-oxadiazol-3-yl)benzenesulfonamide], the results for the IC50 (on Human recombinant HDAC4; in assay [1]; in assay [2] (setting [3])) were 790 nM, 6200 nM and 460 nM, respectively.
Taken in the same sequence, the figures for `O=C(Cc1ccc(-c2noc(C(F)(F)F)n2)cc1)N1CCOCC1` [Example 9, 1-Morpholino-2-(4-(5-(trifluoromethyl)-1,2,4-oxadiazol-3-yl)phenyl)ethanone] were 850 nM, > 10000 nM and 5500 nM.
In the same order, the values of `O=C(NC1CCCCC1O)c1ccc(-c2noc(C(F)(F)F)n2)cc1` (stereo not drawn) [Example 61, N-(2-hydroxycyclohexyl)-4-(5-(trifluoromethyl)-1,2,4-oxadiazol-3-yl)benzamide] are 790 nM, > 10000 nM and 7100 nM.
As for `CN(C)CCN(C)S(=O)(=O)c1ccc(-c2noc(C(F)(F)F)n2)cc1` [Example 99, N-(2-(dimethylamino)ethyl)-N-methyl-4-(5-(trifluoromethyl)-1,2,4-oxadiazol-3-yl)benzenesulfonamide], the figures for the IC50 (at Human recombinant HDAC4; in assay [1]; in assay [2] (setting [3])) were 1350 nM, > 10000 nM and 9900 nM, respectively.
Taken in the same sequence, the figures for `CC(CNC(=O)c1ccc(-c2noc(C(F)(F)F)n2)cc1F)N(C)C` (stereo not drawn) [Example 122, N-(2-(dimethylamino)propyl)-2-fluoro-4-(5-(trifluoromethyl)-1,2,4-oxadiazol-3-yl)benzamide] were 85 nM, 9000 nM and 2400 nM.
In the same order, the values of `CC(CN(C)C)NC(=O)c1ccc(-c2noc(C(F)(F)F)n2)cc1` (stereo not drawn) [Example 53, N-(1-(dimethylamino)propan-2-yl)-4-(5-(trifluoromethyl)-1,2,4-oxadiazol-3-yl)benzamide] are 26 nM, > 10000 nM and > 10000 nM.
Taken in the same sequence, the figures for `CCCN(C)C[C@@H](C)NC(=O)c1ccc(-c2noc(C(F)(F)F)n2)cc1` [Example 139, (R)—N-(1-(methyl(propyl)amino)propan-2-yl)-4-(5-(trifluoromethyl)-1,2,4-oxadiazol-3-yl)benzamide] were 1 nM, 4000 nM and 9600 nM.
As to `CCNC(=O)c1ccc(-c2noc(C(F)(F)F)n2)cc1` [Example 12, N-ethyl-4-(5-(trifluoromethyl)-1,2,4-oxadiazol-3-yl)benzamide], the IC50 on Human recombinant HDAC4 is 430 nM; in assay [1], > 10000 nM; in assay [2] (setting [3]), 4100 nM.
`CN(C)C[C@H](Cc1ccccc1)NC(=O)c1ccc(-c2noc(C(F)(F)F)n2)cc1F` [Example 117, (S)—N-(1-(dimethylamino)-3-phenylpropan-2-yl)-2-fluoro-4-(5-(trifluoromethyl)-1,2,4-oxadiazol-3-yl)benzamide]: the results for the IC50 (on Human recombinant HDAC4; in assay [1]; in assay [2] (setting [3])) were 110 nM, 6700 nM and 1500 nM, respectively.
For `O=C(NCCCO)c1ccc(-c2noc(C(F)(F)F)n2)cc1` [Example 17, N-(3-hydroxyypropyl)-4-(5-(trifluoromethyl)-1,2,4-oxadiazol-3-yl)benzamide], the IC50 at Human recombinant HDAC4 is 1400 nM; in assay [1], > 10000 nM; in assay [2], 8600 nM.
Turning to `CCCN(CC)C[C@@H](C)NC(=O)c1ccc(-c2noc(C(F)(F)F)n2)cc1F` [Example 146, (R)—N-(1-(ethyl(propyl)amino)propan-2-yl)-2-fluoro-4-(5-(trifluoromethyl)-1,2,4-oxadiazol-3-yl)benzamide], the IC50 on Human recombinant HDAC4 was 1.6 nM; in assay [1], 5100 nM; in assay [2] (setting [3]) it was 2400 nM.
In the same order, the values of `O=C(NCC1CCCCN1)c1ccc(-c2noc(C(F)(F)F)n2)cc1` (stereo not drawn) [Example 78, N-(piperidin-2-ylmethyl)-4-(5-(trifluoromethyl)-1,2,4-oxadiazol-3-yl)benzamide] are 30 nM, > 10000 nM and 7000 nM.
Taken in the same sequence, the figures for `O=C(c1ccc(-c2noc(C(F)(F)F)n2)cc1)N1CCCCC1` [Example 33, Piperidin-1-yl(4-(5-(trifluoromethyl)-1,2,4-oxadiazol-3-yl)phenyl)methanone] were 400 nM, > 10000 nM and > 10000 nM.
Taken in the same sequence, the figures for `O=C(NCCCn1ccnc1)c1ccc(-c2noc(C(F)(F)F)n2)cc1` [Example 40, N-(3-(1 H-imidazol-1-yl)propyl)-4-(5-(trifluoromethyl)-1,2,4-oxadiazol-3-yl)benzamide] were 460 nM, > 10000 nM and 4600 nM.
Consider `Cc1cc(NC(=O)c2ccc(-c3noc(C(F)(F)F)n3)cc2)cc(C)n1` [Example 68, N-(2,6-dimethylpyridin-4-yl)-4-(5-(trifluoromethyl)-1,2,4-oxadiazol-3-yl)benzamide], for which the IC50 was 170 nM on Human recombinant HDAC4, > 10000 nM in assay [1] and 5300 nM in assay [2] (setting [3]).
With `CCCN(CCC)C[C@@H](C)NC(=O)c1ccc(-c2noc(C(F)(F)F)n2)cc1` [Example 137, (R)—N-(1-(dipropylamino)propan-2-yl)-4-(5-(trifluoromethyl)-1,2,4-oxadiazol-3-yl)benzamide], the IC50 amounted to 2200 nM in assay [1] and 3000 nM in assay [2] (setting [3]).
`O=C(N[C@H]1CCNC1)c1ccc(-c2noc(C(F)(F)F)n2)cc1` [Example 87, (S)—N-(pyrrolidin-3-yl)-4-(5-(trifluoromethyl)-1,2,4-oxadiazol-3-yl)benzamide]: the IC50 on Human recombinant HDAC4 came out at 300 nM.

For the origin of these results see patent US9056843B2, “Trifluoromethyl-oxadiazole derivatives and their use in the treatment of disease” (NOVARTIS AG, priority 2011, dated 2015).
